Values of other authors in patent US20110264374A1, “Method, Computer Program Product and System for Individual Assessment of Alcohol Sensitivity” (UNIVERSITY OF VIRGINIA PATENT FOUNDATION, priority 2007, published 2011).

Columns and labels:
[1] = blood ethanol, oral ingestion; adopted from the literature [16, 24, 25]

- AUC (area under the curve) [1]: 230 µg·h/mL
- Cmax [1]: 161.4 µg/mL
- tmax [1]: 47 min
- time to peak amount of alcohol in the blood (after consumption of one standard drink): 30 to 45 min
- remainder not metabolized, excreted in sweat, urine and breath (in vivo): 10%
- share of alcohol entering the body completely metabolized in the liver (in vivo): More than 90%
- share of consumed alcohol absorbed from the small intestine (oral consumption): approx. 80%
- share of consumed alcohol absorbed from the stomach (oral consumption): approx. 20%
Compound: CCO [ethanol, Ethyl Alcohol]
